In this assay the test system is Relapsing Experimental Autoimmune Encephalomyelitis (EAE). In words: Relapsing Experimental Autoimmune Encephalomyelitis (EAE), vascular casts quantitated by micro computer tomography. In kind it is in vivo, female Lewis rats. To be noted: rat relapsing EAE. The text has this: In Vivo: Relapsing Experimental Autoimmune Encephalomyelitis (EAE)
Disease is induced in female Lewis rats by immunization with guinea pig spinal cord tissue emulsified in complete Freund's adjuvant. […] On day 26 rats are thoracectomized after having been deeply anesthetized with Isoflurane (3%, 20 L/min) and perfused through the left ventricle of the heart. The left ventricle is punctured with a 19 gauge needle from a winged infusion set (SV-19BLK; Termudo, Elkton, Md.), which is connected to an airtight pressurized syringe containing the rinsing solution (NaCl 0.9% with 250,000 U/I heparin at 35° C.). The right atrium is punctured to provide outflow, and the perfusate is infused under a precise controlled pressure of 120 mm Hg. The perfusion is continued for 5 min (at a constant rate of 20 ml/min) followed by a pre-fixation solution (2% performaldehyde in PBS at 35° C.). Finally, up to 30 ml of polyurethane resin (PUII4; Vasqtec, Zürich, Switzerland) is infused at the same rate. After 48 h, the resin-filled brain and spinal cord are excised from the animal and the soft tissue removed by maceration in 7.5% KOH during 24 hr at 50° C. The casts are then thoroughly cleaned with and stored in distilled water before drying by lyophilization. These vascular casts are quantitated using micro computer tomography.

The mark [1] stands for this setting: hydrochloride salt form, daily 0.3 mg/kg p.o.

Each structure is given as a SMILES string.

Take `CCCCCCCCc1ccc(CCC(N)(CO)CO)cc1.Cl` [Compound A, 2-amino-2-[2-(4-octylphenyl)ethyl]propane-1,3-diol]: the disease-associated neo-angiogenesis result (dose of from 0.1 to 20 mg/kg p.o.) is “significantly blocks”. Under setting [1], the disease-associated angiogenesis result is listed as “fully blocks” and the relapse phases result was “completely inhibits”. Moreover, the “effect on disease-associated angiogenesis and relapse phases, intermittent administration” value (hydrochloride salt form, p.o. 0.3 mg/kg every 2nd or 3rd day or once a week) was “The same effect is obtained”.

The values above are taken from patent US8741963B2, “S1P receptor modulators for treating multiple sclerosis” (Novartis AG, priority 2006, dated 2014).
